# Results from the METLIN SMRT retention time set (Domingo-Almenara et al. 2019).
# Test: gradient 5% acetonitrile 3 min, to 50% in 2 min, to 85% in 15 min, held 3 min, 100 µL/min
# Conditions: column: Zorbax Extend-C18 2.1 x 50 mm; eluents: water / acetonitrile, 0.1% formic acid
# How it was run: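 Pure standards were analyzed in mixtures of ~100 molecules using HPLC coupled to a quadrupole time-of-flight mass spectrometer, in both positive and negative ionization mode. Separation used a Zorbax Extend-C18 column (2.1 × 50 mm, 1.8 μm) at 100 μL/min, with water and acetonitrile each containing 0.1% formic acid. Dead and dwell volumes were 40 μL and 900 μL, and data were collected over 3 months. Retention time was read from computationally picked adduct peaks, each inspected manually.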
row,RP-LC retention time [s],SMILES
1,711,Cc1nc2cc(N3CCCC(C(=O)Nc4ccc5c(c4)OCCO5)C3)cnc2nc1C (stereo not drawn)
2,593,CC1CCCCN1CCN(CCC(=O)N1CCNCC1)C(=O)c1ccc(C(C)(C)C)cc1 (stereo not drawn)
3,1210,CCOc1ccccc1-c1nc(-c2ccc3oc(CC)nc3c2)no1
4,906,CCS(=O)(=O)N1CC(=O)N(c2ccc(Cl)cc2C)C(C)(C(=O)NCc2ccccc2)C1 (stereo not drawn)
5,680,COCCn1ccc2nc(C)c(C(=O)NCc3ccc(C)o3)cc2c1=O
6,723,CCSc1nc2nc3c(cn2n1)C(=O)CCC3
7,947,CCn1ccc2oc(C)c(C(=O)NCc3cccc(F)c3)c2c1=O
8,825,CCn1c(CC2C(=O)Nc3ccc(Br)cc32)nc2ccccc2c1=O (stereo not drawn)
9,740,Cc1ccc(CNC(=O)C2(C)Oc3cccnc3N(C)C2=O)o1 (stereo not drawn)
10,855,O=C(Nc1ccc2c(c1)CCC(=O)N2Cc1ccccc1)c1ccccc1C(F)(F)F
11,670,COc1ccc(-c2cc(N3CCN(C(=O)NCCC(C)C)CC3)ncn2)cc1
12,601,Cc1ccc(C(=O)NCc2ccc(N3CCCC3)nc2)s1
13,666,COCc1c(C(=O)O)nnn1-c1ccc2c(c1)OCCO2
14,735,COc1ccc(CC(=O)Nc2ccc(-c3nc(C)no3)cc2)cc1OC
15,660,CCC(C)NC(=O)C1CCN(S(=O)(=O)c2cc(C(=O)N3CCCC3)n(C)c2)CC1 (stereo not drawn)
16,610,Cc1nnc2c(=O)n(CC(=O)NCC3CC3)c3cccnc3n12
17,1180,CCN(CC)C(=O)c1cc2c(s1)N(CC1CC1)CCCC2
18,815,Cc1ccc(N2C=NS(=O)(=O)c3cccnc32)cc1F
19,559,COCCNC(=O)N1CCN(Cc2nc3cc(C(=O)N(C)C)ccc3o2)CC1
20,1220,CCOc1ccc(-c2cc3c(=O)n(Cc4nc(-c5cccc(OCC)c5)no4)ncn3n2)cc1
21,887,COc1cc(N2C=C(C#N)S(=O)(=O)c3ccc(C)cc32)cc(OC)c1OC
22,643,Nc1ccc(/C=C/c2ccc3ncccc3c2)cc1

row,RP-LC retention time [s],SMILES
1,666,CC(=O)N1CCc2nn(CC(=O)Nc3cccc(Br)c3)c(=O)cc2C1
2,868,Cc1nc(-c2ccccc2)nc2c1CCC(=O)N2C
3,976,CC1(C)CC(=O)c2cn(-c3ccccc3)c(=O)c(C(=O)Nc3ccc4c(c3)OCCO4)c2C1
4,651,O=C(Cc1nc(-c2ccccn2)n[nH]1)Nc1ccc(F)c(F)c1
5,707,O=C(c1ccc(Cn2cncn2)cc1)N1CCN(c2ccccc2)CC1
6,805,COc1cccc(S(=O)(=O)N2CCCN(S(=O)(=O)c3ccccc3)CCC(=O)NCC2)c1
7,566,O=C(C1CCc2nc(N3CCCC3)ncc2C1)N1CCN(Cc2ccc3c(c2)OCO3)CC1 (stereo not drawn)
8,784,Cc1ccc2[nH]cc(CCNC(=O)c3cc(-c4cccnc4)nc4ccccc34)c2c1
9,1200,CC(=O)[C@@]1(O)[C@H](C)C[C@H]2[C@@H]3C=C(C)C4=Cc5c(cnn5-c5ccccc5)C[C@]4(C)[C@H]3[C@@H](O)C[C@@]21C
10,830,Cc1ccc(C)c(NC(=O)c2csc(-c3ccc(N4CCCC4)nc3)n2)c1
11,699,Cc1cn(C)nc1C(=O)Nc1nc2ccc(S(C)(=O)=O)cc2s1
12,1350,Cc1ccc(C)c(-c2csc(NC(=O)c3sc(-c4ccccc4)nc3C)n2)c1
13,988,Cc1cc(C)c(-c2nnc(NC(=O)c3ccccc3Br)s2)c(C)c1
14,890,Cc1ccc(Nc2c(-c3ccc(C)cc3)nc3ccc(Cl)cn23)cc1
15,778,COc1ccc(Nc2cc(C(=O)N3CCC(C)CC3)nc3cc(OC)c(OC)cc23)cc1Cl
16,726,Cc1cccc(CN2CC=C(C(=O)N3CCN(c4ccccc4C)CC3)CC2)c1
17,738,Cc1nnc2c(=O)n(CC(=O)NCc3cccc(C(F)(F)F)c3)c3cccnc3n12
18,958,CC(C)S(=O)(=O)N[C@H]1CCOC[C@@H]1c1ccc(-c2ccc(C#N)s2)cc1
19,776,O=C1NC(c2cccc3ccccc23)Nc2ccccc21 (stereo not drawn)
20,1050,CCn1cc2c3c(cccc31)CN(C(=O)Nc1ccc(Cl)cc1F)CC2
21,1030,Cc1ccc(NC(=O)C2CCCN(c3nc4ccsc4c(=O)n3Cc3ccc(F)cc3)C2)cc1 (stereo not drawn)
22,734,O=C(NC1CCCC1)c1ccc(CN2CCN(Cc3ccccc3)C(=O)C2=O)cc1

row,RP-LC retention time [s],SMILES
1,927,CCOC(=O)c1c(S(=O)(=O)N2CC=C(c3ccccc3)CC2)n[nH]c1CC
2,659,Cc1ccc(-c2cc3c(=O)n(Cc4noc(CN5CCN(C)CC5)n4)ccn3n2)cc1
3,678,CC(C)(C)NC(=O)NC1CCN(C(=O)C2CCCC2)C1 (stereo not drawn)
4,988,COc1ccc(-c2noc(Cc3nnc(-c4cccc(Br)c4)o3)n2)cc1OC
5,679,CCN(CC)C(=O)c1ccc(-c2nc3cc(NS(=O)(=O)c4ccccc4F)ccc3n2C)cc1
6,699,COc1ccc(CCNC(=O)[C@@H]2[C@H](c3cc(OC)c(OC)c(OC)c3)c3cc4c(cc3[C@H](O)[C@H]2CO)OCO4)cc1OC
7,713,CCCC(NC(=O)Cc1ccccc1Cl)C(=O)Nc1nc2ccccc2[nH]1 (stereo not drawn)
8,747,CCCN(CCC)CCCNC(=O)C1CCCN(c2ncc(-c3cccc(F)c3)cn2)C1 (stereo not drawn)
9,1260,Cc1cc(C)cc(NC(=O)c2cc(C(C)C)n3nccc3n2)c1
10,771,COc1cccc(-n2c(N3CCCC(C(=O)NCC4CC4)C3)nc3ccsc3c2=O)c1 (stereo not drawn)
11,687,CCOCCCNCc1ccc(-c2ccc(Cl)cc2)o1
12,938,Cc1ccc(C)c(Sc2ccc(N3CCC(C(=O)NCC(C)c4ccccc4)CC3)nn2)c1 (stereo not drawn)
13,680,O=C1NCCCn2cc(S(=O)(=O)Nc3cccc(Cl)c3)cc21
14,835,Cc1ccc(NC(=O)C2CCN(S(=O)(=O)c3cc(C(=O)N(C)C)cs3)CC2)cc1C
15,581,O=C(c1ccsc1)N1CCC(Nc2ncnc3c2CCC3)CC1
16,764,COc1ccc(C2C(C(=O)N3CCC(C)CC3)c3cc(OC)c(OC)cc3C(=O)N2C)cc1OC (stereo not drawn)
17,953,CCc1ccc(NC(=O)C2CCN(S(=O)(=O)c3ccc4c(c3)sc(=O)n4CC)CC2)cc1
18,741,O=C(NC1CC1)c1ccc(OCC2CCCN2C(=O)c2c(F)cccc2F)cc1 (stereo not drawn)
19,1180,O=c1c2cc(-c3cccs3)nn2cnn1Cc1nc(-c2ccc(OC(F)(F)F)cc2)no1
20,926,O=C(c1cc(S(=O)(=O)N2CCCCCC2)ccc1Cl)N1CCN(c2ncccn2)CC1
21,568,CCn1c(COc2cccc3cccnc23)nnc1SC(F)F
22,601,CCCc1cc(N2CCN(C(=O)c3cccs3)CC2)nc2nncn12

row,RP-LC retention time [s],SMILES
1,730,O=C(NC1CC1)C1CCN(Cc2cc3ccccc3n2Cc2cccc(Cl)c2)CC1
2,652,COc1cccc(NC(=O)C2CCN(c3cc(N4CCCC4)ncn3)CC2)c1
3,650,Cn1cc(-c2ccncc2)cc1C(=O)N1CCN(c2ccccc2F)CC1
4,599,O=C(NCc1cccc(Br)c1)c1ccc2c(c1)ncn2CCN1CCCC1
5,718,CCOC(=O)c1cc(S(=O)(=O)N2CCCC2C(=O)Nc2ccc(NC(C)=O)cc2)cn1C (stereo not drawn)
6,654,Cc1ccc(Cn2cc(-c3ccncc3)cc2C(=O)NCC2CCCO2)cc1 (stereo not drawn)
7,747,Clc1ccc2nc(Nc3ncccn3)nc(-c3ccccc3)c2c1
8,722,CCCC1NN(C)C2C(=O)NC(c3cc(S(=O)(=O)N4CCN(C)CC4)ccc3OCC)NC12 (stereo not drawn)
9,965,CCOC(=O)C1=C(C)NC2=C(C(=O)C(C(=O)OC)C(C)C2)C1c1cccc(Cl)c1 (stereo not drawn)
10,727,O=c1cc(CSc2nnc(-c3ccc4c(c3)OCO4)o2)nc2sccn12
11,941,Cc1nn2c(CNS(=O)(=O)c3cc(C)c(C)cc3C)c(-c3ccccc3)nc2s1
12,606,CC(C)OCCCNC(=O)c1ccc2c(c1)nc1n2CCCCC1
13,736,COc1ccccc1OCC(O)Cn1c(C2CC(=O)N(c3ccccc3)C2)nc2ccccc21 (stereo not drawn)
14,668,COCCNC(=O)CSc1nccc2c1ccn2Cc1ccc(F)cc1
15,913,CC(=O)Nc1cccc(Oc2nc(C)nc3sc4c(c23)CCCC4)c1
16,769,Cc1ccc(-c2cc3c(N4CCC(C(=O)NC(C)C)CC4)nccn3n2)c(C)c1
17,731,O=C(CC1CCCCC1)Nc1cccc(-c2nnc3n2CCCC3)c1
18,861,CCCNC(=O)N1CC(Oc2ccc(-c3nc(-c4ccccc4)no3)cc2)C1
19,691,O=C(c1nc(Cn2cnc3ccccc3c2=O)no1)N1CCN(Cc2ccc3c(c2)OCO3)CC1
20,769,CC(C)N1C(=O)c2cccnc2Sc2cc(C(=O)N3CCCCC3)ccc21
21,892,Cc1noc(-c2ccnc(-n3ncc(C(=O)NC4CCCCC4)c3C)c2)n1

row,SMILES,RP-LC retention time [s]
1,C[C@@]12N[C@@H](Cc3ccccc31)c1ccccc12,655
